“Also recorded” adds a separate entry of the source. Bridge positions count the residues as written; N and C are the ends. Peptide text beside a SMILES is read from it.
Tests used:
DU145 cells [1] = experiment: MTT cell viability assay, DU145 cells; assay type: cell-based
Procedure: (§1) The human esophageal squamous carcinoma cell line KYSE-150 was provided by Dr. Chung S. Yang (Rutgers University, Piscataway, NJ)[41, 42]. DU145, LNCaP, PC-3, K562, U87 and MDA-MB-231 cells were purchased from American Type Culture Collection and cultured with designated medium, supplemented with 10% fetal bovine serum, 100 unit/ml penicillin, and 100 μg/ml streptomycin. Cell viability was determined by MTT assay. Cells were plated at 1,000-1,500 cells per well in a 96-well plate and then treated with indicated amounts of ATAP peptides for 48 hours. Then, 20 μl (5 mg/ml in PBS) MTT [3-(4,5-dimethylthiazol-2-yl)-2,5-diphenyltetrazolium bromide] (Sigma Chemical Co., St. Louis, Mo.) was added to each well. After another 4 hours, 150 μL DMSO was added to dissolve formazan crystals in each well, and the absorbance were recorded at 570 nm.

LNCaP cells = assay type: cell-based; conditions: 48 h
Procedure: as §1

[2] = tested on: MDA-MB-231 breast adenocarcinoma cells; assay type: cell-based; conditions: 48 h
Procedure: as §1

PC-3 cells = assay type: cell-based; conditions: 48 h
Procedure: as §1

U87 glioblastoma cells = assay type: cell-based; conditions: 48 h
Procedure: as §1

K562 cells = assay type: cell-based, human; conditions: 48 h
Procedure: as §1

[3] = tested on: KYSE-150 esophageal squamous carcinoma cells; assay type: cell-based, human; conditions: 48 h
Procedure: as §1

SV129 mice = experiment: Repetitive intravenous injection toxicity in SV129 mice; assay type: in vivo
Procedure: For further evaluation of the in vivo toxic effect of ATAP-iRGD, repetitive injections of ATAP-iRGD into the immune intact SV129 mice were conducted.

[4] = Precipitation / aggregation of peptide in cell culture medium; assay type: physicochemical; conditions: for Precipitation in normal culture medium: 200 μM peptide added to DU145 cells in normal culture medium, 37 °C, 24 hours incubation, microscopy
DU145 xenograft = DU145 xenograft in nude mice; assay type: in vivo, NCR nude mice
Procedure: (§2) Handling of animals was performed in accordance with protocols approved by the Institutional Animal Care and Use Committee (IACUC) of the Ohio State University. Five week-old NCR nude mice (Taconic Farms, Germantown, NY) were implanted subcutaneously in both flanks with 2 ×10^6 DU145 or PC-3 cells. After tumors reached 4 to 7 mm in diameter (about 9~14 days after implantation), the mice were randomly divided into two groups so that both the mean and the variance of the tumor diameters are of no significant difference among the groups prior to treatment. The ATAP-iRGD-M8 peptide was injected through tail vein once every two days during the whole procedure. Tumor volume was measured by a digital caliper (Thermo Fisher Scientific, Waltham, MA). Tumor volume was determined from the orthogonal dimensions (length, width) using the formula: tumor volume = 1/2(length × width^2). According to the IACUC guideline, the experiments will be terminated when tumors reached 1.5 cm in diameter. At the end of experiment, mice were sacrificed and xenografts were removed and weighted. For toxicological evaluation of peptide treatments, mouse body weights were measured every four days. […]

PC-3 xenograft = PC-3 xenograft in nude mice; assay type: in vivo, NCR nude mice; conditions: tail vein injection once every two days
Procedure: as §2

[5] = tested on: kidney, heart, liver, lung and spleen; experiment: H&E organ pathology in xenograft nude mice; assay type: in vivo, NCR nude mice; conditions: xenograft nude mice after peptide treatment, vs control
Procedure: as §2

DU145 cells [6] = experiment: Live-cell confocal imaging of peptide uptake and mitochondria localization; assay type: cell-based; conditions: 2 μM Dylight488-labeled peptide, Mito Tracker Red, 50 μM Q-VD-OPh, confocal microscopy
Procedure: ATAP-iRGD and ATAP-iRGD-M8 peptides were labeled with an amine-reactive DyLight488 fluorophore (Pierce Biotechnology, Rockford, USA) according to the manufacturer's instructions. DU145 cells were cultured in the presence of 2 μM Dylight488-labeled ATAP-iRGD or ATAP-iRGD-M8 plus 50 nM Mito Tracker Red (Molecular Probes Inc., Eugene, OR). 50 μM Q-VD-OPh was added to the culture medium in order to prevent cell apoptosis. Sample images were taken by BioRad 2100 Radiance laser scanning confocal microscope (Bio-Rad Laboratories, Hercules, CA) with a 60×, 1.3NA oil immersion objective (Nikon Instruments Inc., Melville, NY).

Molecule: CC[C@H](C)[C@H](NC(=O)[C@H](CCCCN)NC(=O)CNC(=O)[C@@H](NC(=O)[C@@H](NC(=O)[C@H](CCC(=O)O)NC(=O)[C@H](CC(C)C)NC(=O)[C@H](Cc1ccccc1)NC(=O)[C@@H](NC(=O)[C@H](CCSC)NC(=O)[C@H](Cc1c[nH]c2ccccc12)NC(=O)CNC(=O)[C@H](CO)NC(=O)[C@H](CCCCN)NC(=O)[C@@H]1CCCN1C(=O)[C@H](CCC(=O)O)NC(=O)[C@H](Cc1ccccc1)NC(=O)[C@@H](N)CCCCN)[C@@H](C)O)C(C)C)[C@@H](C)O)C(=O)N[C@@H](C)C(=O)N[C@@H](CCC(=O)O)C(=O)N[C@@H](CCSC)C(=O)N[C@@H](CC(C)C)C(=O)N[C@@H](CO)C(=O)N[C@@H](CC(C)C)C(=O)N[C@@H](CC(C)C)C(=O)N[C@@H](CCCCN)C(=O)N[C@@H](CCC(N)=O)C(=O)N[C@@H](Cc1ccc(O)cc1)C(=O)N[C@H]1CSSC[C@@H](C(=O)O)NC(=O)[C@H](CC(=O)O)NC(=O)[C@@H]2CCCN2C(=O)CNC(=O)[C@H](CCCCN)NC(=O)[C@H](CC(=O)O)NC(=O)CNC(=O)[C@H](CCCNC(=N)N)NC1=O [ATAP-iRGD] (H-KFEPKSGWMTFLEVTGKIAEMLSLLKQYCRGDKGPDC-OH; disulfide 29-37)
- IC50 (DU145 cells [1]; 48 h): 1.6 ± 0.5 µM
- IC50 (LNCaP cells): 7.1 ± 1.7 µM
- IC50 [2]: 5.9 ± 1.1 µM
- IC50 (PC-3 cells): 9.2 ± 1.6 µM
- IC50 (U87 glioblastoma cells): 10.3 ± 2.6 µM
- IC50 (K562 cells): 107 ± 41 µM
- IC50 [3]: 4.4 ± 0.5 µM
- Signs of toxicity on repetitive injection (SV129 mice; immune intact SV129 mice, repetitive intravenous injections): no visible signs or symptoms of toxicity
- H&E pathology of kidney, heart, liver, lung and spleen (SV129 mice; mouse, in vivo, iv): no significant pathological abnormalities

Molecule: CC[C@H](C)[C@H](NC(=O)[C@H](CCCCN)NC(=O)CNC(=O)[C@@H](NC(=O)[C@@H](NC(=O)[C@H](CCC(=O)O)NC(=O)[C@H](CC(C)C)NC(=O)[C@H](Cc1ccccc1)NC(=O)[C@@H](NC(=O)[C@H](CCSC)NC(=O)[C@H](Cc1c[nH]c2ccccc12)NC(=O)CNC(=O)[C@H](CO)NC(=O)[C@H](CCCCN)NC(=O)[C@@H]1CCCN1C(=O)[C@H](CCC(=O)O)NC(=O)[C@H](Cc1ccccc1)NC(=O)[C@@H](N)CCCCN)[C@@H](C)O)C(C)C)[C@@H](C)O)C(=O)N[C@@H](C)C(=O)N[C@@H](CCC(=O)O)C(=O)N[C@@H](CCSC)C(=O)N[C@@H](CC(C)C)C(=O)N[C@@H](CO)C(=O)N[C@@H](CC(C)C)C(=O)N[C@@H](CC(C)C)C(=O)N[C@@H](CC(C)C)C(=O)N[C@@H](CCC(N)=O)C(=O)N[C@@H](Cc1ccc(O)cc1)C(=O)N[C@H]1CSSC[C@@H](C(=O)O)NC(=O)[C@H](CC(=O)O)NC(=O)[C@@H]2CCCN2C(=O)CNC(=O)[C@H](CCCCN)NC(=O)[C@H](CC(=O)O)NC(=O)CNC(=O)[C@H](CCCNC(=N)N)NC1=O [Mutant M4] (H-KFEPKSGWMTFLEVTGKIAEMLSLLLQYCRGDKGPDC-OH; disulfide 29-37)
- Cytotoxic activity in DU145 cells, in words (DU145 cells [1]; MTT assay, 48 hours, unconjugated ATAP tested at 0.01 – 100 μM): complete abolishment of the cytotoxic activity

Molecule: Ac-KKFEPKSGWMTFLEVTGKIAEMLSLLKQYCRGDKGPDC-NH2 (disulfide 30-38 (inferred)) [ATAP-iRGD-M8, ATAP-iRGD with one more Lys, acetylated and amidated termini]
- Precipitation in normal culture medium [4]: no precipitation
- Concentration at which no precipitation was observed ([4]; normal cell culture medium, neutral pH, prolonged incubation): above 200 μM
- DU145 xenograft volume vs saline (DU145 xenograft; 21 mg/kg via tail vein once every two days, n=6 treated, n=9 saline): significantly smaller
- DU-145 xenograft weight at end of experiment (DU145 xenograft; xenografts dissected and weighted, mean±SEM, P<0.05 (Fig. S2)): significantly suppressed DU-145 tumor growth
- PC-3 xenograft tumor growth vs saline (PC-3 xenograft): significant suppression of tumor growth
- H&E pathology of kidney, heart, liver, lung and spleen [5]: no obvious changes
- Cell uptake and mitochondria localization (DU145 cells [6]): clear mitochondria target pattern

Molecule: Ac-KFEPKSGWMTFLEVTGKIAEMLSLLKQYCRGDKGPDC-NH2 (disulfide 29-37 (inferred)) [Mutant M7, ATAP-iRGD with acetylated amino terminus and amidated carboxyl terminus]
- Precipitation in normal culture medium [4]: precipitate; also recorded: pronounced precipitation

Source: article PMC4202157, “Amphipathic tail-anchoring peptide is a promising therapeutic agent for prostate cancer treatment” (Oncotarget, 2014)
